Reference: patent EP4810052A2, “HCRHR2 SELECTIVE POLYPEPTIDES” (Gubra A/S, priority 2023, dated 2026)
Starred links: 1 amine or outer side, 2 acyl side, 3 side chain; linkers in the order of their positions; H or OH if unused. Non-standard residues stand in square brackets, D forms with d. Residues, ends and D or L forms follow the SMILES beside them. Groups on a side chain read outwards from the residue. *: point of attachment. C20 diacid = O=C(O)CCCCCCCCCCCCCCCCCCC(=O)*; γGlu = O=C(O)[C@H](CCC(=O)[*:2])N[*:1]; Nle = CCCC[C@H](N)C(=O)O; AEEA = NCCOCCOCC(=O)O

Key:
hCRHR1 = target: T1, hCRHR1 (Homo sapiens, UniProt P34998); test: HTRF cAMP assay, determination of hCRHR1 potency (peptide libraries 5 conc., purified peptides 11 conc.); type: cell-based; conditions: Table 3, matched molecular pairs X^38 L vs Nle, peptide library of Example 4; read-out: hCRHR1 pEC50 (converted)
T1 sequence (P34998 24-415): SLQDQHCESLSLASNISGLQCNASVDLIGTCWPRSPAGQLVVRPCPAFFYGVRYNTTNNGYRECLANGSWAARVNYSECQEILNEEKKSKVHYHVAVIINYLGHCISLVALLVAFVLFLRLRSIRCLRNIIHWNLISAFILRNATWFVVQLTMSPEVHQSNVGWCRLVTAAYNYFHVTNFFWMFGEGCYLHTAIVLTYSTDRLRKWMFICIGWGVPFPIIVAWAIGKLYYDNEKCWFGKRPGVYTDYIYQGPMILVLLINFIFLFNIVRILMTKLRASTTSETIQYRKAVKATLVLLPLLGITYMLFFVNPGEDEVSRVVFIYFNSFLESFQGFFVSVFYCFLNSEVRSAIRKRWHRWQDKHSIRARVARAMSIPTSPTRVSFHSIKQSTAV
In short: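 Cellular cAMP was read by time-resolved FRET between d2-labelled cAMP and cryptate anti-cAMP antibody. The cells were freshly thawed suspension CHO-K1 cells stably expressing human CRHR1.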

hCRHR2 = target: T2, hCRHR2 (Homo sapiens, UniProt Q13324); test: HTRF cAMP assay, determination of hCRHR2 potency (peptide libraries 5 conc., purified peptides 11 conc.); type: cell-based; conditions: Table 3, matched molecular pairs X^38 L vs Nle, peptide library of Example 4; read-out: hCRHR2 pEC50 (converted)
T2 sequence (Q13324 1-411): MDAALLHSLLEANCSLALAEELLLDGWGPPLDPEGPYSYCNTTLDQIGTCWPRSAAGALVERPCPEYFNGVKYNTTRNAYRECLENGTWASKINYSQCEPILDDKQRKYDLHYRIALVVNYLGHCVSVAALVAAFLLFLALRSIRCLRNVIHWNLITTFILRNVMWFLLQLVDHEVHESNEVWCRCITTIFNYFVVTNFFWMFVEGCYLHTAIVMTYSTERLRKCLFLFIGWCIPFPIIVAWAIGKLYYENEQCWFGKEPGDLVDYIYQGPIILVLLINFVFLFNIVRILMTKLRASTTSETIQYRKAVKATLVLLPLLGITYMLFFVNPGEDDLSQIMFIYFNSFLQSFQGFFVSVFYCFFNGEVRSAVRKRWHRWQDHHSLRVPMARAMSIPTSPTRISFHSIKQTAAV
In short: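 Cells: CHO-K1/hCRHR2 stable clone, suspension, freshly thawed. Readout: competitive TR-FRET, anti-cAMP cryptate vs cAMP-d2. Analysis: sigmoid variable-slope nonlinear regression → EC50.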

| Structure (SMILES) | EC50 (hCRHR1) [nM] | EC50 (hCRHR2) [nM] |
| --- | --- | --- |
| CCCC[C@H](NC(=O)[C@@H](NC(=O)[C@H](CCC(=O)O)NC(=O)[C@H](C)NC(=O)[C@H](CC(N)=O)NC(=O)[C@@H](NC(=O)[C@H](CCCCNC(=O)COCCOCCNC(=O)COCCOCCNC(=O)CC[C@H](NC(=O)CC[C@H](NC(=O)CCCCCCCCCCCCCCCCCCC(=O)O)C(=O)O)C(=O)O)NC(=O)[C@H](C)NC(=O)[C@H](CCC(N)=O)NC(=O)[C@H](CCC(=O)O)NC(=O)[C@H](CCCNC(=N)N)NC(=O)[C@H](C)NC(=O)[C@H](CO)NC(=O)[C@H](CCCNC(=N)N)NC(=O)[C@H](C)NC(=O)[C@H](CCCNC(=N)N)NC(=O)[C@H](C)NC(=O)[C@H](CCC(N)=O)NC(=O)[C@H](CCC(=O)O)NC(=O)[C@H](CC(C)C)NC(=O)[C@H](CC(C)C)NC(=O)[C@@H](NC(=O)[C@H](CCC(N)=O)NC(=O)[C@H](CC(C)C)NC(=O)[C@H](CC(C)C)NC(=O)CNC(=O)[C@@H](NC(=O)[C@@H]1CCCN1C(=O)[C@@H](NC(=O)[C@H](CC(=O)O)NC(=O)[C@H](CC(C)C)NC(=O)[C@H](CO)NC(=O)[C@H](CC(C)C)NC(=O)[C@@H](NC(=O)[C@@H](N)[C@@H](C)CC)C(C)C)C(C)C)[C@@H](C)CC)[C@@H](C)CC)[C@@H](C)O)[C@@H](C)CC)C(=O)N[C@@H](C)C(=O)N[C@@H](CCC(=O)O)C(=O)N[C@H](C(N)=O)[C@@H](C)CC [SEQ ID NO: 36] (H-IVLSLDVPIGLLQILLEQARARSAREQAK([AEEA-AEEA-γGlu-γGlu-C20 diacid])TNAEI[Nle]AEI-NH2) | 5010 | 0.158 |
| CC[C@H](C)[C@H](N)C(=O)N[C@H](C(=O)N[C@@H](CC(C)C)C(=O)N[C@@H](CO)C(=O)N[C@@H](CC(C)C)C(=O)N[C@@H](CC(=O)O)C(=O)N[C@H](C(=O)N1CCC[C@H]1C(=O)N[C@H](C(=O)NCC(=O)N[C@@H](CC(C)C)C(=O)N[C@@H](CC(C)C)C(=O)N[C@@H](CCC(N)=O)C(=O)N[C@H](C(=O)N[C@@H](CC(C)C)C(=O)N[C@@H](CC(C)C)C(=O)N[C@@H](CCC(=O)O)C(=O)N[C@@H](CCC(N)=O)C(=O)N[C@@H](C)C(=O)N[C@@H](CCCNC(=N)N)C(=O)N[C@@H](C)C(=O)N[C@@H](CCCNC(=N)N)C(=O)N[C@@H](C)C(=O)N[C@@H](CC(C)C)C(=O)N[C@@H](CCCNC(=N)N)C(=O)N[C@@H](CCC(N)=O)C(=O)N[C@@H](CCC(=O)O)C(=O)N[C@@H](C)C(=O)N[C@@H](CCCCNC(=O)COCCOCCNC(=O)COCCOCCNC(=O)CC[C@H](NC(=O)CC[C@H](NC(=O)CCCCCCCCCCCCCCCCCCC(=O)O)C(=O)O)C(=O)O)C(=O)N[C@H](C(=O)N[C@@H](CC(N)=O)C(=O)N[C@@H](C)C(=O)N[C@@H](CCC(=O)O)C(=O)N[C@H](C(=O)N[C@@H](CC(C)C)C(=O)N[C@@H](C)C(=O)N[C@@H](CCC(=O)O)C(=O)N[C@H](C(N)=O)C(C)C)[C@@H](C)CC)[C@@H](C)O)[C@@H](C)CC)[C@@H](C)CC)C(C)C)C(C)C [SEQ ID NO: 37] (H-IVLSLDVPIGLLQILLEQARARALRQEAK([AEEA-AEEA-γGlu-γGlu-C20 diacid])TNAEILAEV-NH2) | 158000 | 3.16 |
| CCCC[C@H](NC(=O)[C@@H](NC(=O)[C@H](CCC(=O)O)NC(=O)[C@H](C)NC(=O)[C@H](CC(N)=O)NC(=O)[C@@H](NC(=O)[C@H](CCCCNC(=O)COCCOCCNC(=O)COCCOCCNC(=O)CC[C@H](NC(=O)CC[C@H](NC(=O)CCCCCCCCCCCCCCCCCCC(=O)O)C(=O)O)C(=O)O)NC(=O)[C@H](C)NC(=O)[C@H](CCC(=O)O)NC(=O)[C@H](CCC(N)=O)NC(=O)[C@H](CCCNC(=N)N)NC(=O)[C@H](CC(C)C)NC(=O)[C@H](C)NC(=O)[C@H](CCCNC(=N)N)NC(=O)[C@H](C)NC(=O)[C@H](CCCNC(=N)N)NC(=O)[C@H](C)NC(=O)[C@H](CCC(N)=O)NC(=O)[C@H](CCC(=O)O)NC(=O)[C@H](CC(C)C)NC(=O)[C@H](CC(C)C)NC(=O)[C@@H](NC(=O)[C@H](CCC(N)=O)NC(=O)[C@H](CC(C)C)NC(=O)[C@H](CC(C)C)NC(=O)CNC(=O)[C@@H](NC(=O)[C@@H]1CCCN1C(=O)[C@@H](NC(=O)[C@H](CC(=O)O)NC(=O)[C@H](CC(C)C)NC(=O)[C@H](CO)NC(=O)[C@H](CC(C)C)NC(=O)[C@@H](NC(=O)[C@@H](N)[C@@H](C)CC)C(C)C)C(C)C)[C@@H](C)CC)[C@@H](C)CC)[C@@H](C)O)[C@@H](C)CC)C(=O)N[C@@H](C)C(=O)N[C@@H](CCC(=O)O)C(=O)N[C@H](C(N)=O)C(C)C [SEQ ID NO: 38] (H-IVLSLDVPIGLLQILLEQARARALRQEAK([AEEA-AEEA-γGlu-γGlu-C20 diacid])TNAEI[Nle]AEV-NH2) | 63100 | 0.398 |
| CC[C@H](C)[C@H](N)C(=O)N[C@H](C(=O)N[C@@H](CC(C)C)C(=O)N[C@@H](CO)C(=O)N[C@@H](CC(C)C)C(=O)N[C@@H](CC(=O)O)C(=O)N[C@H](C(=O)N1CCC[C@H]1C(=O)N[C@H](C(=O)NCC(=O)N[C@@H](CC(C)C)C(=O)N[C@@H](CC(C)C)C(=O)N[C@@H](CCC(N)=O)C(=O)N[C@H](C(=O)N[C@@H](CC(C)C)C(=O)N[C@@H](CC(C)C)C(=O)N[C@@H](CCC(=O)O)C(=O)N[C@@H](CCC(N)=O)C(=O)N[C@@H](C)C(=O)N[C@@H](CCCNC(=N)N)C(=O)N[C@@H](C)C(=O)N[C@@H](CCCNC(=N)N)C(=O)N[C@@H](C)C(=O)N[C@@H](CC(C)C)C(=O)N[C@@H](CCCNC(=N)N)C(=O)N[C@@H](CCC(=O)O)C(=O)N[C@@H](CCC(N)=O)C(=O)N[C@@H](C)C(=O)N[C@@H](CCCCNC(=O)COCCOCCNC(=O)COCCOCCNC(=O)CC[C@H](NC(=O)CC[C@H](NC(=O)CCCCCCCCCCCCCCCCCCC(=O)O)C(=O)O)C(=O)O)C(=O)N[C@H](C(=O)N[C@@H](CC(N)=O)C(=O)N[C@@H](C)C(=O)N[C@@H](CCC(=O)O)C(=O)N[C@H](C(=O)N[C@@H](CC(C)C)C(=O)N[C@@H](C)C(=O)N[C@@H](CCC(=O)O)C(=O)N[C@H](C(N)=O)C(C)C)[C@@H](C)CC)[C@@H](C)O)[C@@H](C)CC)[C@@H](C)CC)C(C)C)C(C)C [SEQ ID NO: 39] (H-IVLSLDVPIGLLQILLEQARARALREQAK([AEEA-AEEA-γGlu-γGlu-C20 diacid])TNAEILAEV-NH2) | 794 | 0.501 |
| CCCC[C@H](NC(=O)[C@@H](NC(=O)[C@H](CCC(=O)O)NC(=O)[C@H](C)NC(=O)[C@H](CC(N)=O)NC(=O)[C@@H](NC(=O)[C@H](CCCCNC(=O)COCCOCCNC(=O)COCCOCCNC(=O)CC[C@H](NC(=O)CC[C@H](NC(=O)CCCCCCCCCCCCCCCCCCC(=O)O)C(=O)O)C(=O)O)NC(=O)[C@H](C)NC(=O)[C@H](CCC(N)=O)NC(=O)[C@H](CCC(=O)O)NC(=O)[C@H](CCCNC(=N)N)NC(=O)[C@H](CC(C)C)NC(=O)[C@H](C)NC(=O)[C@H](CCCNC(=N)N)NC(=O)[C@H](C)NC(=O)[C@H](CCCNC(=N)N)NC(=O)[C@H](C)NC(=O)[C@H](CCC(N)=O)NC(=O)[C@H](CCC(=O)O)NC(=O)[C@H](CC(C)C)NC(=O)[C@H](CC(C)C)NC(=O)[C@@H](NC(=O)[C@H](CCC(N)=O)NC(=O)[C@H](CC(C)C)NC(=O)[C@H](CC(C)C)NC(=O)CNC(=O)[C@@H](NC(=O)[C@@H]1CCCN1C(=O)[C@@H](NC(=O)[C@H](CC(=O)O)NC(=O)[C@H](CC(C)C)NC(=O)[C@H](CO)NC(=O)[C@H](CC(C)C)NC(=O)[C@@H](NC(=O)[C@@H](N)[C@@H](C)CC)C(C)C)C(C)C)[C@@H](C)CC)[C@@H](C)CC)[C@@H](C)O)[C@@H](C)CC)C(=O)N[C@@H](C)C(=O)N[C@@H](CCC(=O)O)C(=O)N[C@H](C(N)=O)C(C)C [SEQ ID NO: 40] (H-IVLSLDVPIGLLQILLEQARARALREQAK([AEEA-AEEA-γGlu-γGlu-C20 diacid])TNAEI[Nle]AEV-NH2) | 25.1 | 0.398 |
